Results published in ChEMBL document CHEMBL1909046, “DrugMatrix in vitro pharmacology data”.

How the values were obtained:
[1] = biological target: Matrix metalloproteinase-9 (Homo sapiens, UniProt P14780); assay: biochemical; type: cell-based;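 also: inhibition of isolated MMP-9 enzyme activity toward a synthetic peptide substrate, from the DrugMatrix protease screening panel; in other assays of this panel Not Active means under 50% inhibition at 10 µM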
[2] = DRUGMATRIX: Calcium Channel Type L, Phenylalkylamine radioligand binding (ligand: [3H] (-)-Desmethoxyverapamil (D-888)); type: cell membranes, Rattus norvegicus, Wistar, Brain, Membrane; conditions: Not Active = under 50% inhibition at 10 µM
Interstitial collagenase = biological target: T1, Interstitial collagenase (Homo sapiens, UniProt P03956); assay: biochemical; type: tissue-based, Rheumatoid synovial fibroblasts;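 also: MMP-1 enzyme inhibition assay using a peptide substrate; in other assays of this panel Not Active means under 50% inhibition at 10 µM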
T1 sequence (P03956 whole entry): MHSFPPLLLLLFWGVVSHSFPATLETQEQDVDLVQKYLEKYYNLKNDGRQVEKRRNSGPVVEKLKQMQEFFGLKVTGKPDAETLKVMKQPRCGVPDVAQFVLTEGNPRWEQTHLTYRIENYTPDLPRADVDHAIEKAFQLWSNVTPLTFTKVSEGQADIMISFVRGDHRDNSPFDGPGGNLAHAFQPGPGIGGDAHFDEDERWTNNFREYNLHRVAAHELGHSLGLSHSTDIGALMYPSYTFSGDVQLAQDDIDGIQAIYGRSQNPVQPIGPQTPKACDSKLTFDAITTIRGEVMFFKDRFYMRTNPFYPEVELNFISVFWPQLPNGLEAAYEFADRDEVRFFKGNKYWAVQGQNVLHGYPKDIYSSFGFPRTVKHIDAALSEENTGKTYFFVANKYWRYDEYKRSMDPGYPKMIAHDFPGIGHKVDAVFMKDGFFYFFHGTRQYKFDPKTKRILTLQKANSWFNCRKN

[3] = DRUGMATRIX: Tumor Necrosis Factor (TNF), Non-Selective radioligand binding (ligand: [125I] TNF-alpha); type: cell membranes, Membrane; conditions: u-937; Not Active = under 50% inhibition at 10 µM
Cytochrome P450 2E1 = Cytochrome P450 2E1 (Homo sapiens, UniProt P05181); conditions: bti-tn-5b1-4; also: in other assays of this panel Not Active means under 50% inhibition at 10 µM
[4] = DRUGMATRIX: GABAA, Muscimol, Central radioligand binding (ligand: [3H] Muscimol); type: cell membranes, Rattus norvegicus, Wistar, Brain, Membrane; conditions: Not Active = under 50% inhibition at 10 µM
[5] = biological target: 5-hydroxytryptamine receptor 1B (Rattus norvegicus, UniProt P28564); type: cell membranes, Wistar, Cerebral cortex, Membrane; also: in other assays of this panel Not Active means under 50% inhibition at 10 µM
Sequence of 5-hydroxytryptamine receptor 1B (P28564 whole entry): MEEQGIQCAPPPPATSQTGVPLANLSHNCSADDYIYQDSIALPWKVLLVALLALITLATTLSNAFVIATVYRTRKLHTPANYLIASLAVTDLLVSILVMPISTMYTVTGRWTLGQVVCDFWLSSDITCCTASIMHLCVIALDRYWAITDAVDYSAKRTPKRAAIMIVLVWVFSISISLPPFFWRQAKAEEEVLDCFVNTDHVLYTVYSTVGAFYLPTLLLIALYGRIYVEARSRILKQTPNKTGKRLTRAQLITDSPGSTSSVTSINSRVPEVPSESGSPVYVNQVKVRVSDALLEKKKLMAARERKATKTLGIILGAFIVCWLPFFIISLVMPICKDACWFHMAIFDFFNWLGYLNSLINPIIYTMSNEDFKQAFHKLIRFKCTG

Sequence of Matrix metalloproteinase-9 (P14780 whole entry): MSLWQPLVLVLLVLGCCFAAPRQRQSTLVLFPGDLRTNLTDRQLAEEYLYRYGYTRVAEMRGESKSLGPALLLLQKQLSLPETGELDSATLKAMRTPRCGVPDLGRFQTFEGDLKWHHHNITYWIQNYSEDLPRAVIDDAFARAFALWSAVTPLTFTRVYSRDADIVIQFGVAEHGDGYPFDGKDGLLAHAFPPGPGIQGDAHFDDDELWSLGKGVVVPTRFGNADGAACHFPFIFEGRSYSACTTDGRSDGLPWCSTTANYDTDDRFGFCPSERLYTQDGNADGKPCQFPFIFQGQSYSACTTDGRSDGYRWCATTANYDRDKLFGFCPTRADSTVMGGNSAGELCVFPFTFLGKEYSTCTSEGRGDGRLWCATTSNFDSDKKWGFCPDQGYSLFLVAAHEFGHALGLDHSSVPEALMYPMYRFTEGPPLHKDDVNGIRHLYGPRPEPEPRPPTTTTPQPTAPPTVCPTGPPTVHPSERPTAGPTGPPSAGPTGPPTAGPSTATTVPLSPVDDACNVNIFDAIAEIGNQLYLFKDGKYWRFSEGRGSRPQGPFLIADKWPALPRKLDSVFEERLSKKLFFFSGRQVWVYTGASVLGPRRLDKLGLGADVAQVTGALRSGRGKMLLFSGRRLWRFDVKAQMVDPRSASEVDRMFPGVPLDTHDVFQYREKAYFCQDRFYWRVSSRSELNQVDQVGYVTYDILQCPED
Sequence of Cytochrome P450 2E1 (P05181 whole entry): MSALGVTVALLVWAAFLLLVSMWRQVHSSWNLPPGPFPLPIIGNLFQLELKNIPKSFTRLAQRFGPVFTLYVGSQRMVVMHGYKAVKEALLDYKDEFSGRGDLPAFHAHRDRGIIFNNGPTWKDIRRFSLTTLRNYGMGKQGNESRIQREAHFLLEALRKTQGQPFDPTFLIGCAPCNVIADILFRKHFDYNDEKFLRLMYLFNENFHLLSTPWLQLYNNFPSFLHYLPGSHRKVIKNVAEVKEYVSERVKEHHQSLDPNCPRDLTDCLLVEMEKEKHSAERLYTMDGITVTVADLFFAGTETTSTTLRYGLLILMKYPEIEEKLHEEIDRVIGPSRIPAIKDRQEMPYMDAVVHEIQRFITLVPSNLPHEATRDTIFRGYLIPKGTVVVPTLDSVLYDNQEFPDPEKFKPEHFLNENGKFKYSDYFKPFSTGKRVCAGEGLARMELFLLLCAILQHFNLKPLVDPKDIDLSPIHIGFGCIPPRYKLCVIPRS

Row | Compound | IC50 [1] | IC50 [2] | Ki [2] | IC50 (Interstitial collagenase) | IC50 [3] | Ki [3] | IC50 (Cytochrome P450 2E1) | Ki (Cytochrome P450 2E1) | IC50 [4] | Ki [4] | IC50 [5] | IC50 ([2]; read-out: IC50) [nM] | Ki ([2]; read-out: Ki) [nM] | Ki [1] | Ki (Interstitial collagenase) | Ki [5]
1 | CCCN(CCC)S(=O)(=O)c1ccc(C(=O)O)cc1 [PROBENECID] | Not Active | Not Active | Not Active | Not Active | Not Active | Not Active | Not Active | Not Active | Not Active | Not Active | Not Active | – | – | – | – | –
2 | CCCNCC(O)COc1ccccc1C(=O)CCc1ccccc1 (stereo not given) [PROPAFENONE] | Not Active | – | – | Not Active | Not Active | Not Active | Not Active | Not Active | Not Active | Not Active | Not Active | 1740 | 1700 | – | – | –
3 | CCCOc1ccc(C(=O)OCCN(CC)CC)cc1N [PROPARACAINE] | Not Active | Not Active | Not Active | Not Active | Not Active | Not Active | Not Active | Not Active | Not Active | Not Active | Not Active | – | – | – | – | –
4 | C[C@@H]1O[C@@H](O[C@@H]2C=C3CC[C@@H]4[C@H](CC[C@]5(C)[C@@H](c6ccc(=O)oc6)CC[C@]45O)[C@@]3(C)CC2)[C@H](O)[C@H](O)[C@H]1O [PROSCILLARIDIN] | Not Active | Not Active | Not Active | Not Active | Not Active | Not Active | Not Active | Not Active | Not Active | Not Active | Not Active | – | – | – | – | –
5 | Oc1cccc(O)c1O [PYROGALLOL] | Not Active | Not Active | Not Active | Not Active | Not Active | Not Active | Not Active | Not Active | Not Active | Not Active | Not Active | – | – | – | – | –
6 | AURANOFIN | Not Active | Not Active | Not Active | Not Active | Not Active | Not Active | Not Active | Not Active | Not Active | Not Active | Not Active | – | – | Not Active | Not Active | Not Active
7 | GADOPENTETATE DIMEGLUMINE | Not Active | Not Active | Not Active | Not Active | Not Active | Not Active | Not Active | Not Active | Not Active | Not Active | Not Active | – | – | Not Active | Not Active | Not Active
8 | GENTAMICIN | Not Active | Not Active | Not Active | Not Active | Not Active | Not Active | Not Active | Not Active | Not Active | Not Active | Not Active | – | – | Not Active | Not Active | Not Active
9 | GRAMICIDIN | Not Active | Not Active | Not Active | Not Active | Not Active | Not Active | Not Active | Not Active | Not Active | Not Active | Not Active | – | – | Not Active | Not Active | Not Active
10 | NYSTATIN | Not Active | Not Active | Not Active | Not Active | Not Active | Not Active | Not Active | Not Active | Not Active | Not Active | Not Active | – | – | Not Active | Not Active | Not Active
